According to patent publication US20050032766A1, “Use of estrogenic compounds as anti-fungal agents” (priority 2003, published 2005):

Assays:
Assay type in all cases: cell-based
C. albicans [1] = assay: C. albicans colony counts with 17β-estradiol in presence and absence of 2ME2 (Example 3); conditions: 5 hours; for Number of Colonies treated with estradiol: 1 nM 17β-estradiol alone; for Number of Colonies treated with estradiol and 2ME2: 1 μM 2ME2 with 1 nM 17β-estradiol; for Percentage of Inhibition: 1 μM 2ME2 with 1 nM 17β-estradiol vs estradiol alone
Procedure: (§1) The ability of 3 μM 2ME2 to inhibit the growth of ten different strains of C. albicans was investigated. Nine of these strains were clinically isolated and maintained by interval of subculture with Sabouraouds dextrose agar and storage at 4° C.; the other strain was purchased from ATCC. Yeast cells were cultured with nitrogen broth devoid of mammalian steroid hormones in the presence and absence of 2ME2. At 5 and 12 hours after the addition of 2ME2, a small volume of control and treated cultures was drawn and plated on Sabouraouds dextrose agar plates. The plates were placed at 37° C. and the colonies counted 24 hours later. Table I illustrates that micromolar concentrations 2ME2 are able to suppress the growth of 9/10 strains of C. albicans tested here.
In a separate experiment, 1 nM 17β-estradiol was added to the cultures of C. albicans cells in the presence and absence of 1 μM 2ME2 and the number of colonies of yeast cells cultured for 5 hours with the above steroids were counted as previously described.

C. albicans [2] = assay: Growth inhibition of C. albicans strains by 2ME2, colony counts at 5 and 12 hours (Example 1); conditions: for Number of Treated Colonies at 5 hrs / Number of Treated Colonies at 12 hrs / Percentage of Inhibition at 12 hrs: 3 μM 2ME2
Procedure: as §1

C. albicans [3] = assay: Repeat of the growth inhibition test, colony counts after 5 hours of culture (Example 2)
Procedure: as §1
The experiment described in Example 1 was repeated with 4 of the above strains and 3 newly isolated C. albicans trains. The following counts were taken from yeast cultures grown for 5 hours in the nitrogen base media in the presence and absence of micromolar concentrations 2ME2.

[4] = strain 2, micromolar concentrations 2ME2
[5] = strain 5, micromolar concentrations 2ME2
[6] = strain 8, micromolar concentrations 2ME2
[7] = strain 10, micromolar concentrations 2ME2
[8] = strain 11, micromolar concentrations 2ME2
[9] = strain 12, micromolar concentrations 2ME2
[10] = strain ATCC, micromolar concentrations 2ME2

C[C@]12CC[C@@H]3c4ccc(O)cc4CC[C@H]3[C@@H]1CC[C@@H]2O [estradiol, 17β-estradiol, reference compound]
Number of Colonies treated with estradiol (C. albicans [1]; strain 2): 58 ± 5
Number of Colonies treated with estradiol (C. albicans [1]; strain 5): 69 ± 13
Number of Colonies treated with estradiol (C. albicans [1]; strain 8): 48 ± 7
Number of Colonies treated with estradiol (C. albicans [1]; strain 10): 52 ± 2
Number of Colonies treated with estradiol (C. albicans [1]; strain 11): 80 ± 1
Number of Colonies treated with estradiol (C. albicans [1]; strain 12): 120
Number of Colonies treated with estradiol (C. albicans [1]; strain ATCC): 63 ± 8

COc1cc2c(cc1O)CC[C@@H]1[C@@H]2CC[C@]2(C)[C@@H](O)CC[C@@H]12 [2ME2, 2-Methoxyestradiol]
strains of C. albicans whose growth is suppressed (C. albicans [2]; micromolar concentrations 2ME2, ten strains tested): 9/10
Number of Treated Colonies at 5 hrs (C. albicans [2]; strain 1): 16
Number of Treated Colonies at 12 hrs (C. albicans [2]; strain 1): 50
Percentage of Inhibition at 12 hrs (C. albicans [2]; strain 1): 57%
Number of Treated Colonies at 5 hrs (C. albicans [2]; strain 2): 51
Number of Treated Colonies at 12 hrs (C. albicans [2]; strain 2): >400
Number of Treated Colonies at 5 hrs (C. albicans [2]; strain 3): 14
Number of Treated Colonies at 12 hrs (C. albicans [2]; strain 3): 86
Percentage of Inhibition at 12 hrs (C. albicans [2]; strain 3): >78%
Number of Treated Colonies at 5 hrs (C. albicans [2]; strain 4): 17
Number of Treated Colonies at 12 hrs (C. albicans [2]; strain 4): 113
Percentage of Inhibition at 12 hrs (C. albicans [2]; strain 4): >72%
Number of Treated Colonies at 5 hrs (C. albicans [2]; strain 5): 14
Number of Treated Colonies at 12 hrs (C. albicans [2]; strain 5): 85
Percentage of Inhibition at 12 hrs (C. albicans [2]; strain 5): >79%
Number of Treated Colonies at 5 hrs (C. albicans [2]; strain 6): 32
Number of Treated Colonies at 12 hrs (C. albicans [2]; strain 6): 131
Percentage of Inhibition at 12 hrs (C. albicans [2]; strain 6): >67%
Number of Treated Colonies at 5 hrs (C. albicans [2]; strain 7): 13
Number of Treated Colonies at 12 hrs (C. albicans [2]; strain 7): 148
Percentage of Inhibition at 12 hrs (C. albicans [2]; strain 7): >63%
Number of Treated Colonies at 5 hrs (C. albicans [2]; strain 8): 14
Number of Treated Colonies at 12 hrs (C. albicans [2]; strain 8): 98
Percentage of Inhibition at 12 hrs (C. albicans [2]; strain 8): >75%
Number of Treated Colonies at 5 hrs (C. albicans [2]; strain 9): 15
Number of Treated Colonies at 12 hrs (C. albicans [2]; strain 9): 90
Percentage of Inhibition at 12 hrs (C. albicans [2]; strain 9): >77%
Number of Treated Colonies at 5 hrs (C. albicans [2]; strain ATCC): 15
Number of Treated Colonies at 12 hrs (C. albicans [2]; strain ATCC): 67
Percentage of Inhibition at 12 hrs (C. albicans [2]; strain ATCC): 70%
Percentage of Inhibition (C. albicans [3]; [4]): 70%
Treated Colonies (C. albicans [3]; [4]): 26 ± 7
Percentage of Inhibition (C. albicans [3]; [5]): 41%
Treated Colonies (C. albicans [3]; [5]): 58 ± 7
Percentage of Inhibition (C. albicans [3]; [6]): 50%
Treated Colonies (C. albicans [3]; [6]): 59 ± 7
Percentage of Inhibition (C. albicans [3]; [7]): 0%
Treated Colonies (C. albicans [3]; [7]): 51 ± 19
Percentage of Inhibition (C. albicans [3]; [8]): 14%
Treated Colonies (C. albicans [3]; [8]): 74 ± 16
Percentage of Inhibition (C. albicans [3]; [9]): 50%
Treated Colonies (C. albicans [3]; [9]): 77 ± 12
Percentage of Inhibition (C. albicans [3]; [10]): 44%
Treated Colonies (C. albicans [3]; [10]): 36 ± 6
Number of Colonies treated with estradiol and 2ME2 (C. albicans [1]; strain 2): 64 ± 2
Percentage of Inhibition (C. albicans [1]; strain 5): 43%
Number of Colonies treated with estradiol and 2ME2 (C. albicans [1]; strain 5): 39 ± 4
Percentage of Inhibition (C. albicans [1]; strain 8): 48%
Number of Colonies treated with estradiol and 2ME2 (C. albicans [1]; strain 8): 25 ± 3
Percentage of Inhibition (C. albicans [1]; strain 10): 56%
Number of Colonies treated with estradiol and 2ME2 (C. albicans [1]; strain 10): 23 ± 5
Percentage of Inhibition (C. albicans [1]; strain 11): 31%
Number of Colonies treated with estradiol and 2ME2 (C. albicans [1]; strain 11): 55 ± 6
Percentage of Inhibition (C. albicans [1]; strain 12): 53%
Number of Colonies treated with estradiol and 2ME2 (C. albicans [1]; strain 12): 56 ± 1
Percentage of Inhibition (C. albicans [1]; strain ATCC): 55%
Number of Colonies treated with estradiol and 2ME2 (C. albicans [1]; strain ATCC): 28 ± 12
